Laboratory results from the Kinase Knowledgebase extract (Sharma et al. 2016).
Several values for one entry are separate records, joined by “and”; a condition that tells them apart may be missing. Equal entries are not always repeated. One block for each compound: values may come before it.

Assays:
EGFR [1] = biological target: EGFR (UniProt P00533)
MAPK14 [2] = biological target: MAPK14 (UniProt Q16539); experiment: MAPK14 Binding Inhibition
MAPK14 (human) [3] = biological target: MAPK14 (human) (UniProt Q16539); experiment: p38-mediated IL-1 Inhibition (LPS-Stimulated PBMCs); details: pbmc
Chain of MAPK14 (human) (Q16539 whole entry, looked up): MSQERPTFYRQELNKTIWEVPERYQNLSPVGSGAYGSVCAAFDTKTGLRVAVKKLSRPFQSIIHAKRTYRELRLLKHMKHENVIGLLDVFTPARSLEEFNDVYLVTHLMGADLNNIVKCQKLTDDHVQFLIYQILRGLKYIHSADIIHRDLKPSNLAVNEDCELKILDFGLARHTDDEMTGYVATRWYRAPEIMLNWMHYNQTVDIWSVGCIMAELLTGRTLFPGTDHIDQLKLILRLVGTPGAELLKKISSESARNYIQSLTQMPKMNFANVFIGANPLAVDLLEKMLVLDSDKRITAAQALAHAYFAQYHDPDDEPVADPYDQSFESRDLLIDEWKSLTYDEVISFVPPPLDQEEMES

MAPK14 (human) [4] = biological target: MAPK14 (human) (UniProt Q16539); experiment: p38-mediated TNF-Inhibition (LPS-Stimulated PBMCs); details: pbmc
EGFR (human) [5] = biological target: EGFR (human) (UniProt P00533)
Chain of EGFR (human) (P00533 whole entry, looked up): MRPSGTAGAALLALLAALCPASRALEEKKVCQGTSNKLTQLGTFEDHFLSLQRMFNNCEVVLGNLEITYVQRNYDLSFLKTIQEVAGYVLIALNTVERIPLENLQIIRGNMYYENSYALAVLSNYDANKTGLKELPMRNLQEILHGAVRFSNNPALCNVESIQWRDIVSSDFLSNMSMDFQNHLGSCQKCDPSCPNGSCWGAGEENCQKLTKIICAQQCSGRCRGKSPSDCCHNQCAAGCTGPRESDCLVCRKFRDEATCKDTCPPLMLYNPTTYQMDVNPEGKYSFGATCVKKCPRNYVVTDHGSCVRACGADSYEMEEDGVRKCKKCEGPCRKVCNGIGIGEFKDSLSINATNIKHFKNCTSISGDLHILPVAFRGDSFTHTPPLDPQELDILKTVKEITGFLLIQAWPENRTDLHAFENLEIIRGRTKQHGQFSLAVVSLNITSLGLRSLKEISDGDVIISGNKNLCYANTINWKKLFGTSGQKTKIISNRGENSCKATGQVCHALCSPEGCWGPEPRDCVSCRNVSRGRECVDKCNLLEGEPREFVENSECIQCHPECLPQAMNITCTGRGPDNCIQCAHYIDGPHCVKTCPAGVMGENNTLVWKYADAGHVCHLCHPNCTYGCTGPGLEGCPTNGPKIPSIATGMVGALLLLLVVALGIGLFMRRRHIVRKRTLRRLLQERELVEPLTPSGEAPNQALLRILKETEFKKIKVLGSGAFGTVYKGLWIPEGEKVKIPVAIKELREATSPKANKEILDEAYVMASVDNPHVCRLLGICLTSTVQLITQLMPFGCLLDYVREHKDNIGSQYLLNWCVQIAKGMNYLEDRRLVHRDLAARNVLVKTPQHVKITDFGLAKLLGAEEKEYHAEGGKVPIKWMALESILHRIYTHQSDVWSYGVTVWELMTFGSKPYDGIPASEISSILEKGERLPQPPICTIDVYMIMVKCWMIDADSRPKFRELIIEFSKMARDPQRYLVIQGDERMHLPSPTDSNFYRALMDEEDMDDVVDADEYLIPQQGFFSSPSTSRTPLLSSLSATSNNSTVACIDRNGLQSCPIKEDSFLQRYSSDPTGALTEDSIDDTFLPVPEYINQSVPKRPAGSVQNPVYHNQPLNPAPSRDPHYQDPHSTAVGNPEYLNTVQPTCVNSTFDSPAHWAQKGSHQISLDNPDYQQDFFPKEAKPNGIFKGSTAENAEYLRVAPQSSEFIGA

EGFR [6] = biological target: EGFR (UniProt P00533); remark: listed apart in the source
MAPK14 (human) [7] = biological target: MAPK14 (human) (UniProt Q16539); experiment: p38 --- IL-1 Inhibition (whole blood cells)
MAPK14 [8] = biological target: MAPK14 (UniProt Q16539); experiment: p38-mediated EGFR Peptide Phosphorylation Inhibition
MAPK14 [9] = biological target: MAPK14 (UniProt Q16539); experiment: p38-alpha2 Inhibition (E. coli); details: concentration not given here
MAPK14 [10] = biological target: MAPK14 (UniProt Q16539)
MAPK14 (rat) [11] = details: dose or concentration not given here
EGFR [12] = biological target: EGFR (UniProt P00533); remark: listed apart in the source
MAPK14 (rat) [13] = experiment: p38-alpha Inhibition (Collagen-Induced Arthritis)
EGFR (human) [14] = biological target: EGFR (human) (UniProt P00533); details: A431
PIK3CD (Human) [15] = biological target: PIK3CD (Human) (UniProt O00329); experiment: Cell-Based Assay; details: raji
Chain of PIK3CD (Human) (O00329 whole entry, looked up): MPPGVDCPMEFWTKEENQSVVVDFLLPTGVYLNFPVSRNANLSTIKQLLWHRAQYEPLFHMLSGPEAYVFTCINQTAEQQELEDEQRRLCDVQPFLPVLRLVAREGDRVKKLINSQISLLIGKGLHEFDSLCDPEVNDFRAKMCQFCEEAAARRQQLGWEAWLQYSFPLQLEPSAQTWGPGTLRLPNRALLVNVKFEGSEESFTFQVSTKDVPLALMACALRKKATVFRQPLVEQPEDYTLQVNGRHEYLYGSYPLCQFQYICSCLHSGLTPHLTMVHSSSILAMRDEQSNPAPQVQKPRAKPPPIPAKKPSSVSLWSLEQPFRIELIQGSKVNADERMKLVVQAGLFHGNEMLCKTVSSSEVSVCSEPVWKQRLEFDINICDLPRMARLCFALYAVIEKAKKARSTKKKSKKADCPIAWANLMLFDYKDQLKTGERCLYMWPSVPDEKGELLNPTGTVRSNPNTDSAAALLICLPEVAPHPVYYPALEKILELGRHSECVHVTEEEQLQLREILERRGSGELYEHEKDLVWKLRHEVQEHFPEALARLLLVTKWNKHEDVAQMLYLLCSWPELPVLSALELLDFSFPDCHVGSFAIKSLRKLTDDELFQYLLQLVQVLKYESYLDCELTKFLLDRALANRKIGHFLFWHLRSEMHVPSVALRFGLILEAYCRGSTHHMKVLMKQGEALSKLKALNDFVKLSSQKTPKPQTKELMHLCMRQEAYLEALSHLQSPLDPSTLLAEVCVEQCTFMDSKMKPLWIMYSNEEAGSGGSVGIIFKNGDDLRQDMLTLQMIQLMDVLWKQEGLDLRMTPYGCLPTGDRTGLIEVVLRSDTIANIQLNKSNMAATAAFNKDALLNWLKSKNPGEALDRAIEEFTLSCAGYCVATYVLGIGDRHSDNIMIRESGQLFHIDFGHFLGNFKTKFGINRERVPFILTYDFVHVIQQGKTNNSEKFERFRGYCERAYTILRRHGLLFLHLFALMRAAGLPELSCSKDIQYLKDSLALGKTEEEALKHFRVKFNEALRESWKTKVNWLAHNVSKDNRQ

PIK3CA (human) [16] = biological target: PIK3CA (human) (UniProt P42336); experiment: Enzyme Assay
PIK3CB (Human) [17] = biological target: PIK3CB (Human) (UniProt P42338); experiment: Enzyme Assay
Chain of PIK3CB (Human) (P42338 whole entry, looked up): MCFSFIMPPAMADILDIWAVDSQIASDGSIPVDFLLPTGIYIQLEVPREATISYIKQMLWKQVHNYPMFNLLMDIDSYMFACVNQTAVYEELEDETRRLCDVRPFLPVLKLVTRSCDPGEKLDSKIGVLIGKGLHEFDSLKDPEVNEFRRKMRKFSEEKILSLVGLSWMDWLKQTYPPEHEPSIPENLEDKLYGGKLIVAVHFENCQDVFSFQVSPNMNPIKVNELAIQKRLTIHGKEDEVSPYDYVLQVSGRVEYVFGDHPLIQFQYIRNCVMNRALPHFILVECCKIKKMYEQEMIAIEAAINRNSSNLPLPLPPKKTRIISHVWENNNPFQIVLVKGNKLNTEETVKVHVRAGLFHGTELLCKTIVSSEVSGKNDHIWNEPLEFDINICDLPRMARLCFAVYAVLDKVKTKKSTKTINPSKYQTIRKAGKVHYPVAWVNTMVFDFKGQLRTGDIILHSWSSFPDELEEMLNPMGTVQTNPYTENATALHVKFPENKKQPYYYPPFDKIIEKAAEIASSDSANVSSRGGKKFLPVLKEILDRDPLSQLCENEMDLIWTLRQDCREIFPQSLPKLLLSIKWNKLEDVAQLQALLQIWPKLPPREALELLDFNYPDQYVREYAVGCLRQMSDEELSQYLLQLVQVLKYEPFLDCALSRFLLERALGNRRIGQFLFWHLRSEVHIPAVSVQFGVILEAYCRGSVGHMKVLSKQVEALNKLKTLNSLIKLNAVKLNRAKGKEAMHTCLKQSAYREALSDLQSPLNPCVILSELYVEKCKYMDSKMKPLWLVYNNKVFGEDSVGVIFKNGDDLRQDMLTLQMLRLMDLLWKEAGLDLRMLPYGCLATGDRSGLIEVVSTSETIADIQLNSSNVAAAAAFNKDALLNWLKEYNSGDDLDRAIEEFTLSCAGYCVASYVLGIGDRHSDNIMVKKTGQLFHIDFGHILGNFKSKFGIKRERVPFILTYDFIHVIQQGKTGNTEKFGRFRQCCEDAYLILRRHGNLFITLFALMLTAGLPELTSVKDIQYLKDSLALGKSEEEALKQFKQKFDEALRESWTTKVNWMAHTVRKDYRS

PIK3CG (human) [18] = biological target: PIK3CG (human) (UniProt P48736); experiment: Enzyme Assay
PIK3CD (Human) [19] = biological target: PIK3CD (Human) (UniProt O00329); experiment: Enzyme Assay
[20] = biological target: EGFR (Human), P00533 [T790M/L858R]; details: h1975
MAPK14 (human) [21] = biological target: MAPK14 (human) (UniProt Q16539); experiment: p38-mediated TNF-alpha Inhibition (THP1 Cells)
[22] = system: MAPK14 (sprague-dawley rat); experiment: p38-mediated TNF-alpha Inhibition (Sprauge-Dawley Rats); details: dose or concentration not given here
MAPK14 [23] = biological target: MAPK14 (UniProt Q16539); experiment: p38 Kinase Inhibition
MAPK14 (Lewis rat) = experiment: SCW-induced Arthritis (Lewis Rat)
MAPK14 [24] = biological target: MAPK14 (UniProt Q16539); experiment: p38 Inhibition (Phosphorylation of EGF Receptor Peptide)
MAPK14 (human) [25] = biological target: MAPK14 (human) (UniProt Q16539); experiment: TNF-alpha Inhibition (Human Whole Blood); details: blood cells
MAPK14 (human) [26] = biological target: MAPK14 (human) (UniProt Q16539); experiment: TNF-alpha Inhibition (PBMC)
CDK2 (human) [27] = biological target: CDK2 (human) (UniProt P24941); experiment: Enzyme Assay
CDK2 (human) [28] = biological target: CDK2 (human) (UniProt P24941); experiment: Enzyme Assay; remark: listed apart in the source
EGFR [29] = biological target: EGFR (UniProt P00533); remark: listed apart in the source
[30] = biological target: EGFR (human), P00533 [WT]
Chain of EGFR (human), P00533 [WT] (P00533 whole entry, looked up): as the sequence (P00533 whole entry, looked up) above

MAPK14 [31] = biological target: MAPK14 (UniProt Q16539); remark: listed apart in the source
MAPK14 [32] = biological target: MAPK14 (UniProt Q16539); remark: listed apart in the source
EGFR (Hamster) = EGFR (Hamster) (UniProt P00533); details: er22
EGFR [33] = biological target: EGFR (UniProt P00533); remark: listed apart in the source
EGFR [34] = biological target: EGFR (UniProt P00533); remark: listed apart in the source
CDK2 (human) [35] = biological target: CDK2 (human) (UniProt P24941); experiment: Enzyme Assay; remark: listed apart in the source
CDK2 (human) [36] = biological target: CDK2 (human) (UniProt P24941); experiment: Enzyme Assay; remark: listed apart in the source
PIK3CG (human) [37] = biological target: PIK3CG (human) (UniProt P48736); experiment: Inhibition of PIK3CG Kinase Activity
PIK3CB (Human) [38] = biological target: PIK3CB (Human) (UniProt P42338); experiment: Inhibition of PIK3CB Kinase Activity
PIK3CD (Human) [39] = biological target: PIK3CD (Human) (UniProt O00329); experiment: Inhibition of PIK3CD Kinase Activity
PIK3CD (Human) [40] = biological target: PIK3CD (Human) (UniProt O00329); experiment: Cellular Inhibition of PIK3CD Kinase in Raji (Burkitt’s Lymphoma) Cells
PIK3CA (human) [41] = biological target: PIK3CA (human) (UniProt P42336); experiment: Cellular Inhibition of PIK3CA Kinase in MDA-MB-453 Cells
MAPK14 (OF1 mice) = experiment: P38-mediated TNF-alpha Inhibition (OF1 Mice)
[42] = biological target: PIK3CD (Human), O00329 [Inhibition of PIK3CG Kinase Activity]; experiment: Enzyme Assay
Chain of PIK3CD (Human), O00329 [Inhibition of PIK3CG Kinase Activity] (O00329 whole entry, looked up, change not shown): as the sequence (O00329 whole entry, looked up) above

[43] = biological target: EGFR (human), P00533 [WT]; remark: listed apart in the source
EGFR (human) [44] = biological target: EGFR (human) (UniProt P00533); details: A431 epidermoid carcinoma
[45] = biological target: EGFR (human), P00533 [WT]; remark: listed apart in the source
[46] = biological target: EGFR (Human), P00533 [T790M/L858R]
EGFR [47] = biological target: EGFR (UniProt P00533); remark: listed apart in the source
EGFR (human) [48] = biological target: EGFR (human) (UniProt P00533); details: A431; concentration not given here
[49] = biological target: EGFR (human), P00533 [G719C]; details: a375
MAPK14 (human) [50] = biological target: MAPK14 (human) (UniProt Q16539); experiment: Enzyme Assay
[51] = biological target: EGFR (human), P00533 [L858R]
[52] = biological target: EGFR (human), P00533 [L861Q]
[53] = biological target: EGFR (human), P00533 [E746-A750del]; details: a375

Chain of MAPK14 (Q16539 whole entry, looked up): as the sequence (Q16539 whole entry, looked up) above

Structure (SMILES): COc1cc(-c2c(-c3ccc(F)cc3)ncn2C2CCNCC2)ccn1
- IC50 (MAPK14 [2]): < 50000 nM

Structure (SMILES): O=C1NCN2N=C(Sc3ccccc3Br)C=CC2=C1c1c(Cl)cccc1Cl
- IC50 (MAPK14 (human) [3]): 240 nM
- IC50 (MAPK14 (human) [4]): 160 nM

Structure (SMILES): O=c1ncn2nc(Sc3ccccc3)ccc2c1-c1c(Cl)cccc1Cl
- IC50 (MAPK14 (human) [7]): 3000 nM
- IC50 (MAPK14 [8]): 1300 nM

Structure (SMILES): COC(=O)c1sc(C(C)(C)C)cc1NC(=O)Nc1ccc(C(N)=O)cc1
- inhibition (MAPK14 [9]): 23%

Structure (SMILES): CO[C@H]1[C@@H](N(C)C2C=NC=CN2)C[C@@H]2O[C@@]1(C)n1c3ccccc3c3c4c(c5c6ccccc6n2c5c31)C(=O)NC4 (stereo not given in full)
- IC50 (EGFR [12]): 8180 nM

Structure (SMILES): CN1CCC(O)(c2nc(-c3ccc(F)cc3)c(-c3ccncc3)o2)CC1
- ED50 (MAPK14 (rat) [13]): 20 mg/kg/day

Structure (SMILES): Nc1ccc2c(NCc3ccccc3)ncnc2c1
- IC50 (EGFR (human) [14]): 1250 nM

Structure (SMILES): C[C@H](NC(=O)c1c(N)nn2cccnc12)c1cc2cccc(Cl)c2c(=O)n1CCNS(=O)(=O)C(F)(F)F
- IC50 (PIK3CD (Human) [15]): 10 to 100 nM
- IC50 (PIK3CA (human) [16]): 1000 to 10000 nM
- IC50 (PIK3CB (Human) [17]): 1000 to 10000 nM
- IC50 (PIK3CG (human) [18]): 500 to 1000 nM
- IC50 (PIK3CD (Human) [19]): 1000 to 10000 nM

Structure (SMILES): CC1(C(=O)N2CCOCC2)COC(c2nc(-c3ccc(F)cc3)c(-c3ccnc(NC4CC4)n3)[nH]2)OC1 (stereo not given)
- AUC (MAPK14 (Lewis rat)): 2 and 2.1 and 3.3

Structure (SMILES): Brc1cccc(Nc2ncnc3ccccc23)c1
- IC50 (EGFR [29]): 126 nM
- IC50 [30]: 27 nM

Structure (SMILES): CC[C@@H]1CC(=O)c2c(cc(O)c3c2C(=O)c2cccc(OC)c2C3=O)C1
- IC50 (EGFR [33]): 2110 nM

Structure (SMILES): CC(C)(Cc1ccccc1Br)Nc1nc(N2CCOCC2)nc(-n2c(C(F)F)nc3ccccc32)n1
- IC50 (PIK3CG (human) [37]): 200 to 500 nM
- IC50 (PIK3CB (Human) [38]): < 100 nM
- IC50 (PIK3CD (Human) [39]): < 100 nM
- IC50 (PIK3CD (Human) [40]): < 100 nM

Structure (SMILES): CC(C)(Cc1ccccc1C1CCN(S(C)(=O)=O)CC1)Nc1nc(N2CCOCC2)nc(-n2c(C(F)F)nc3ccccc32)n1
- IC50 (PIK3CA (human) [41]): 200 to 500 nM

Structure (SMILES): CN1CCC(O)(c2nc(-c3ccc(F)cc3)c(-c3ccncc3)s2)CC1
- inhibition (MAPK14 (OF1 mice)): 0%

Structure (SMILES): COc1cccc(Nc2ccnc(Nc3cccc(OC)c3)n2)c1
- IC50 [45]: 7700 nM

Continued, in another order:

- IC50 (EGFR [1]): 1500 nM
Structure (SMILES): COc1cc2ncc(C#N)c(Nc3cc(OC)c(OC)c(OC)c3)c2cc1OC

- IC50 (EGFR (human) [5]): 1700 nM
Structure (SMILES): N#CC(C#N)=C(N)/C(C#N)=C/c1ccc2ccccc2n1

- IC50 (EGFR [6]): > 10000 nM
Structure (SMILES): O=C(Nc1cc2ccccc2cn1)c1ccccc1NCc1ccncc1

- activity (MAPK14 [10]): 6 nM
Structure (SMILES): COc1cc(N)nc2[nH]c(-c3ccc(F)cc3)c(-c3ccncc3)c12
- inhibition (MAPK14 (rat) [11]): 97%

- IC50 [20]: > 10000 nM
Structure (SMILES): C=CC(=O)NCCN1C(=O)N(Cc2ccccc2)Cc2cnc(Nc3ccc(N4CCN(C)CC4)cc3OC)nc21

- IC50 (MAPK14 (human) [21]): 170 nM
- IC50 (MAPK14 [23]): 1450 nM
Structure (SMILES): Nc1c(C(=O)c2cccc(NC=NO)c2)cnn1-c1ccc(F)cc1
- inhibition [22]: 76%

- IC50 (MAPK14 [24]): > 20000 nM
Structure (SMILES): O=c1ncn2nc(Sc3ccccc3)ccc2c1-c1ccccc1

- IC50 (MAPK14 (human) [25]): 1200 nM
- IC50 (MAPK14 (human) [26]): 292 nM
Structure (SMILES): C[C@H](Nc1nccc(-c2cc(N3CCOCC3)nnc2-c2cccc(C(F)(F)F)c2)n1)c1ccccc1

- IC50 (CDK2 (human) [27]): 1420 nM
- IC50 (CDK2 (human) [28]): 72 nM
Structure (SMILES): COc1cc(F)ccc1-c1cc(Nc2cc(CS(C)(=O)=NC#N)ccn2)ncc1F (stereo not given)

- IC50 (MAPK14 [31]): < 50000 nM
- IC50 (MAPK14 [32]): < 50000 nM
Structure (SMILES): O=C(CN1CCNCC1)Nc1cccc(Oc2nccc(-c3c(-c4ccc(F)cc4)ncn3C3CCNCC3)n2)c1

- IC50 (EGFR (Hamster)): 9000 nM
Structure (SMILES): COC(=O)c1cc(NCc2cc(O)ccc2O)ccc1O

- IC50 (EGFR [34]): > 50000 nM
Structure (SMILES): O=C(Nc1cccc(Nc2nccc(-c3cccnc3)n2)c1)c1ccccc1S

- IC50 (CDK2 (human) [35]): 1350 nM
- IC50 (CDK2 (human) [28]): 97.3 nM
- IC50 (PIK3CA (human) [16]): 1060 nM
- IC50 (PIK3CB (Human) [17]): 759 nM
- IC50 (PIK3CG (human) [18]): 1120 nM
- IC50 (CDK2 (human) [36]): 770 nM
Structure (SMILES): CN1CCN(c2ccc(Nc3ncc4cc(C#N)c(=O)n(C5CCCC5)c4n3)cc2)CC1

- IC50 [42]: < 1 nM
Structure (SMILES): CCN1CCN(CC(=O)Nc2ccc(-c3cccc4c(=O)cc(N5CCOCC5)oc34)c3sc4ccccc4c23)CC1

- IC50 [43]: 79 nM
Structure (SMILES): COc1cc(N2CCN(C(C)=O)CC2)ccc1Nc1ncc(Cl)c(-c2c[nH]c3ccccc23)n1

- IC50 (EGFR (human) [44]): > 100000 nM
Structure (SMILES): Cn1c(SSc2c(C(=O)Nc3ccccc3)c3ccc(C(F)(F)F)cc3n2C)c(C(=O)Nc2ccccc2)c2cc(C(F)(F)F)ccc21

- IC50 [46]: 0.7 nM
Structure (SMILES): C=CC(=O)Nc1cccc(N2C(=O)N(Cc3ccccc3)Cc3cnc(Nc4ccc(N5CCN(C)CC5)cc4OC)nc32)c1

- IC50 (EGFR [47]): > 1620 nM
Structure (SMILES): O=C(O)CCC1C(=S)Nc2ccccc21 (stereo not given)

- inhibition (EGFR (human) [48]): 4%
Structure (SMILES): Oc1cccc(-c2nc3ccc(O)cc3s2)c1

- Kd [49]: 2.6 nM
- IC50 (MAPK14 (human) [50]): 63 nM
- IC50 [51]: 24.9 nM
- IC50 [52]: 21 nM
- Kd [53]: 7 nM
Structure (SMILES): CN(C)C/C=C/C(=O)Nc1cccc(C(=O)Nc2ccc(Nc3nccc(-c4c(-c5ccccc5)nn5ccccc45)n3)cc2)c1
